Results: patent publication US9890185B2, “Urea derivatives useful as kinase inhibitors” (Respivert Limited, priority 2013, dated 2018)

Assays:
c-Src = c-Src (Homo sapiens (Human), UniProt P12931); assay: c-Src enzyme inhibition (FRET, Z-LYTE); assay type: biochemical
Outline: (§1)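 Read-out is the coumarin-to-fluorescein emission ratio after protease cleavage of unphosphorylated peptide, with IC50 taken from concentration-response data. Compounds were tested at four levels (added solutions 4–0.004 μg/mL) after 2 hr enzyme preincubation at RT; kinase reaction ran 1 hr with ATP solutions of 800 μM (c-Src) or 60 μM (Syk).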

Syk = Syk (Homo sapiens (Human), UniProt P43405); assay: Syk enzyme inhibition (FRET, Z-LYTE); assay type: biochemical
Outline: as §1

GSK 3α = GSK 3α (Homo sapiens (Human), UniProt P49840); assay: GSK 3α enzyme inhibition (FRET, Z-LYTE, Method 2); assay type: biochemical; details: read-out: IC50 Values for Enzyme Inhibition, GSK3α
GSK 3α, sequence (P49840 whole entry): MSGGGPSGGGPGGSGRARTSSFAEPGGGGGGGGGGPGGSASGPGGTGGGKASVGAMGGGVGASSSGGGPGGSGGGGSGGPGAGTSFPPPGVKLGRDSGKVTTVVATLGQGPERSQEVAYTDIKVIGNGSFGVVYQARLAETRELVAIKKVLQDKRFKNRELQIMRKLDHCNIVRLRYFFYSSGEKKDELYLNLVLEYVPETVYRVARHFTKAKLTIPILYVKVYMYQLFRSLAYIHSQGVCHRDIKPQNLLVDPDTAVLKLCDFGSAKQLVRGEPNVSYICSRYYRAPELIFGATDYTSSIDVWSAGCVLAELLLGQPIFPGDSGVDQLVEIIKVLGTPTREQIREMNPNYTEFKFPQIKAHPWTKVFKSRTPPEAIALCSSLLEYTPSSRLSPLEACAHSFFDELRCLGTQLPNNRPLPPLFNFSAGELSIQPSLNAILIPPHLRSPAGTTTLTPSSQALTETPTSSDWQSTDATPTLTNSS
Outline: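 Recombinant human GSK3α was preincubated with compound (stocks 4, 0.4, 0.04 or 0.004 μg/mL) at RT, 2 hr for Method 1 and 105 min for Method 2. FRET peptide (8 μM stock) and ATP (40 μM stock) were added for 1 hr, then protease development for 1 hr. IC50 was taken from concentration–response curves.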

PBMCs [1] = assay: LPS-induced IL-8 release in PBMC cells (assay b); assay type: cell-based, human; details: Homo sapiens, PBMC; LPS-stimulated PBMCs; read-out: IC50 Values for Inhibition of Cytokine Release, PBMCs IL-8
Outline: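 Human PBMCs from healthy donors, isolated by density gradient, were pretreated with compound for 2 h and then stimulated with 1 ng/mL LPS (E. coli 0111:B4) for 24 h at 37° C, 5% CO2. Supernatant IL-8 and TNFα were measured by sandwich ELISA, and IC50 was taken from the dose-response curve.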

PBMCs [2] = assay: IL-2 release in CD3/CD28 stimulated PBMC cells (assay c); assay type: cell-based; details: Homo sapiens, read-out: IC50 Values for Inhibition of Cytokine Release, PBMCs IL-2
Outline: (§2)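 Compound added to human PBMCs on anti-CD3/anti-CD28-coated wells (0.3 and 3 μg/mL respectively); 3-day culture. Sandwich ELISA of supernatant IL-2 or IFN gamma gives the read-out, with IC50 derived from the dose-response curve.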

PBMCs [3] = assay: IFN gamma release in CD3/CD28 stimulated PBMC cells (assay c); assay type: cell-based; details: Homo sapiens, read-out: IC50 Values for Inhibition of Cytokine Release, PBMCs IFNγ
Outline: as §2

d-U937 cells = assay: Accumulation of β catenin in d-U937 cells (assay m); assay type: cell-based, human; details: percentage relative to Reference Compound at 1 μg/mL
Outline: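 PMA-differentiated (100 ng/mL, 48–72 hr) human U937 macrophage-type cells treated with test compound or vehicle for 18 hr. β-catenin measured by in-cell ELISA (anti-β-catenin, HRP secondary, TMB, OD450–655). Signal corrected for cell number by dividing by crystal violet OD595.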

c-Src, sequence (P12931 whole entry, looked up): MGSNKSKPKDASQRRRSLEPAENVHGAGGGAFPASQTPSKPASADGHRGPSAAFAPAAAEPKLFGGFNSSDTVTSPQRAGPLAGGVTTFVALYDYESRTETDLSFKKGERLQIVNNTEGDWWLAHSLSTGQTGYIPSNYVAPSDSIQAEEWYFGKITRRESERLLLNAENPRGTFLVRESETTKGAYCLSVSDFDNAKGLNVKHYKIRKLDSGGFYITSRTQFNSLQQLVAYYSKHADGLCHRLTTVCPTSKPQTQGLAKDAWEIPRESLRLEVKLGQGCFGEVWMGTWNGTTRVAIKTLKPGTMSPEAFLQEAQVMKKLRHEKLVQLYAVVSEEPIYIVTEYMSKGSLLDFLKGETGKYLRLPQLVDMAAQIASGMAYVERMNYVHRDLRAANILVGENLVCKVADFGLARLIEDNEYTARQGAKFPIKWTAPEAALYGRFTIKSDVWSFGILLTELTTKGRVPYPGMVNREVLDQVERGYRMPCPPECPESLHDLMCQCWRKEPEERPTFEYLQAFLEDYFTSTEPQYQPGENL

| SMILES | IC50 (c-Src) | IC50 (Syk) | IC50 (GSK 3α) | IC50 (PBMCs [1]) | IC50 (PBMCs [2]) | IC50 (PBMCs [3]) | % β-catenin induction (d-U937 cells; test compound 1 μg/mL) | % β-catenin induction (d-U937 cells; test compound 5 μg/mL) | % β-catenin induction (d-U937 cells; test compound 10 μg/mL) |
| --- | --- | --- | --- | --- | --- | --- | --- | --- | --- |
| COc1c(NC(=O)Nc2ccc(Oc3ccnc(Nc4ccccc4)c3)c3ccccc23)cc(C(C)(C)C)cc1[S+](C)[O-] (racemic) [Example 12, 1-(5-(tert-Butyl)-2-methoxy-3-(methylsulfinyl)phenyl)-3-(4-((2-(phenylamino)pyridin-4-yl)oxy)naphthalen-1-yl)urea] | 0.201 µM | 0.656 µM | > 9.9 µM | 0.0036 µM | 0.067 µM | 0.0086 µM | −0.5% | 5.0% | 6.0% |
| COCCOCCOCCOc1cc(Nc2cc(Oc3ccc(NC(=O)Nc4cc(C(C)(C)C)cc(CS(C)(=O)=O)c4OC)c4ccccc34)ccn2)cc(OC)c1 [15(a), 1-(5-(tert-butyl)-2-methoxy-3-((methylsulfonyl)methyl)phenyl)-3-(4-((2-((3-methoxy-5-(2-(2-(2-methoxyethoxy)ethoxy)ethoxy)phenyl)amino)pyridin-4-yl)oxy)naphthalen-1-yl)urea] | 0.028 µM | 0.134 µM | > 12.2 µM | 0.0036 µM | 0.0432 µM | 0.0272 µM | −4.0% | −5.0% | −3.0% |
| COc1c(NC(=O)Nc2ccc(Oc3ccnc(Nc4cccnc4)c3)c3ccccc23)cc(C(C)(C)C)cc1P(C)(C)=O [15(ad), 1-(5-(tert-butyl)-3-(dimethylphosphoryl)-2-methoxyphenyl)-3-(4-((2-(pyridin-3-ylamino)pyridin-4-yl)oxy)naphthalen-1-yl)urea] | 0.129 µM | 1 µM | 1.6 µM | 0.0037 µM | 1.11 µM | 0.0162 µM | 12.0% | 36.0% | 49.0% |
| COc1cc(F)cc(Nc2cc(Oc3ccc(NC(=O)Nc4cc(C(C)(C)C)cc(P(C)(C)=O)c4OC)c4ccccc34)ccn2)c1 [15(an), 1-(5-(tert-butyl)-3-(dimethylphosphoryl)-2-methoxyphenyl)-3-(4-((2-((3-fluoro-5-methoxyphenyl)amino)pyridin-4-yl)oxy)naphthalen-1-yl)urea] | 0.116 µM | 0.712 µM | > 15.2 µM | 0.0027 µM | 0.251 µM | 0.0062 µM | 1.5% | 11.5% | 13.5% |
| COc1c(NC(=O)Nc2ccc(Oc3ccnc(Nc4cnn(C)n4)n3)c3ccccc23)cc(C(C)(C)C)cc1P(C)(C)=O [15(x), 1-(5-(tert-butyl)-3-(dimethylphosphoryl)-2-methoxyphenyl)-3-(4-((2-((2-methyl-2H-1,2,3-triazol-4-yl)amino)pyrimidin-4-yl)oxy)naphthalen-1-yl)urea] | 0.356 µM | > 1.63 µM | 4.66 µM | 0.0061 µM | 0.624 µM | 0.0359 µM | 7.0% | 4.0% | 4.0% |
| COc1c(CC(N)=O)cc(C(C)(C)C)cc1NC(=O)Nc1ccc(Oc2ccnc(NCc3ccccn3)c2)c2ccccc12 [38(d), 2-(5-(tert-Butyl)-2-methoxy-3-(3-(4-((2-((pyridin-2-ylmethyl)amino)pyridin-4-yl)oxy)naphthalen-1-yl)ureido)phenyl)acetamide] | > 1.57 µM | > 1.65 µM | 2.24 µM | 0.0045 µM | 1.65 µM | 0.106 µM | 2.5% | 19.5% | 30.0% |
| COc1c(CC(N)=O)cc(C(C)(C)C)cc1NC(=O)Nc1ccc(Oc2ccnc(Nc3cc(C)cc(C)c3)c2)c2ccccc12 [38(f), 2-(5-(tert-Butyl)-3-(3-(4-((2-((3,5-dimethylphenyl)amino)pyridin-4-yl)oxy)naphthalen-1-yl)ureido)-2-methoxyphenyl)acetamide] | 0.069 µM | 0.837 µM | 14.8 µM | 0.0055 µM | 0.0758 µM | 0.0165 µM | 2.0% | 3.3% | 8.3% |
| CNC(=O)Cc1cc(C(C)(C)C)cc(NC(=O)Nc2ccc(Oc3ccnc(Nc4cccc(OC)c4)c3)c3ccccc23)c1OC [38(h), 2-(5-(tert-Butyl)-2-methoxy-3-(3-(4-((2-((3-methoxyphenyl)amino)pyridin-4-yl)oxy)naphthalen-1-yl)ureido)phenyl)-N-methylacetamide] | 0.181 µM | 1.07 µM | > 14.6 µM | 0.0027 µM | 0.16 µM | 0.0177 µM | 1.5% | 4.0% | 6.0% |
| COc1cc(Nc2cc(Oc3ccc(NC(=O)Nc4cc(C(C)(C)C)cc(CC(N)=O)c4OC)c4ccccc34)ccn2)ccn1 [38(k), 2-(5-(tert-Butyl)-2-methoxy-3-(3-(4-((2-((2-methoxypyridin-4-yl)amino)pyridin-4-yl)oxy)naphthalen-1-yl)ureido)phenyl)acetamide] | 0.166 µM | > 1.61 µM | 2.62 µM | 0.0021 µM | 0.281 µM | 0.0146 µM | 10.5% | 39.5% | 52.0% |
| COc1cc(CO)cc(Nc2cc(Oc3ccc(NC(=O)Nc4cc(C(C)(C)C)cc(CC(N)=O)c4OC)c4ccccc34)ccn2)c1 [38(m), 2-(5-(tert-Butyl)-3-(3-(4-((2-((3-(hydroxymethyl)-5-methoxyphenyl)amino)pyridin-4-yl)oxy)naphthalen-1-yl)ureido)-2-methoxyphenyl)acetamide] | 0.033 µM | 0.364 µM | 3.38 µM | 0.002 µM | 0.0938 µM | 0.007 µM | 3.0% | 23.0% | 37.0% |
| COCCOCCOCCOc1cc(Nc2nccc(Oc3ccc(NC(=O)Nc4cc(C(C)(C)C)cc(OCP(C)(C)=O)c4OC)c4ccccc34)n2)cc(OC)c1 [Example 6, 1-(5-(tert-Butyl)-3-((dimethylphosphoryl)methoxy)-2-methoxyphenyl)-3-(4-((2-((3-methoxy-5-(2-(2-(2-methoxyethoxy)ethoxy)ethoxy)phenyl)amino)pyrimidin-4-yl)oxy)naphthalen-1-yl)urea] | 0.016 µM | 0.058 µM | 1.2 µM | 0.0019 µM | – | 0.0155 µM | 1.0% | 29.0% | 65.0% |
| COc1cc(Nc2cc(Oc3ccc(NC(=O)Nc4cc(C(C)(C)C)cc([S+](C)[O-])c4OC)c4ccccc34)ccn2)ccc1C(=O)NCCN1CCOCC1 (centres unmarked) [Example 72, 4-((4-((4-(3-(5-(tert-Butyl)-2-methoxy-3-(methylsulfinyl)phenyl)ureido)naphthalen-1-yl)oxy)pyridin-2-yl)amino)-2-methoxy-N-(2-morpholinoethyl)benzamide] | 0.02 µM | 0.098 µM | 3.67 µM | 0.0021 µM | 0.156 µM | 0.0075 µM | – | – | – |
| COc1cc(Nc2cc(Oc3ccc(NC(=O)Nc4cc(C(C)(C)C)cc(CC(N)=O)c4OC)c4ccccc34)ccn2)ccc1C(=O)NCC(CO)(CO)CO [Example 73, 4-((4-((4-(3-(3-(2-Amino-2-oxoethyl)-5-(tert-butyl)-2-methoxyphenyl)ureido)naphthalen-1-yl)oxy)pyridin-2-yl)amino)-N-(3-hydroxy-2,2-bis(hydroxymethyl)propyl)-2-methoxybenzamide] | 0.029 µM | 0.12 µM | 1.98 µM | 0.0015 µM | 0.0601 µM | 0.0063 µM | – | – | – |
| COCCOCCOCCNC(=O)c1cc(Nc2cc(Oc3ccc(NC(=O)Nc4cc(C(C)(C)C)cc(CNC(=O)CN(C)C)c4OC)c4ccccc34)ccn2)cc(OC)c1 [Example 77, 3-((4-((4-(3-(5-(tert-Butyl)-3-((2-(dimethylamino)acetamido)methyl)-2-methoxyphenyl)ureido)naphthalen-1-yl)oxy)pyridin-2-yl)amino)-5-methoxy-N-(2-(2-(2-methoxyethoxy)ethoxy)ethyl)benzamide] | 0.017 µM | 0.051 µM | 2.62 µM | 0.0009 µM | 0.0189 µM | 0.0023 µM | – | – | – |
